# What was measured:
# [1] = tested on: MRL-Pdcd1^−/− mice; assay: AJM300 mixed diet in myocarditis model (survival, echocardiography); format: in vivo, mouse
# Protocol: […] MRL-Pdcd1^−/− mice were divided into two groups: AJM300 (−) group (n=13) not to be administered with the AJM300 and AJM300 (+) group (n=12) to be administered with the AJM300.
# The AJM300 group (+) was administered with a mixed diet containing 1% of AJM300 from 2 weeks of age until death.
# At 28 days of age, 9 mice in the AJM300 (−) group and 10 mice in the AJM300 (+) group were evaluated for the cardiac function by the echocardiography and then euthanized to collect heart and blood samples.
# [2] = tested on: Vcam-1; assay: Induction of Vcam-1 by TNFα in cardiac fibroblasts (Western blotting); format: cell-based, rat; conditions: 12 hours and 24 hours after addition of TNFα versus 0 hour, TNFα 5 to 15 ng/ml
# Protocol: (§1) For the cardiac fibroblasts, fibroblasts isolated after cell dispersion of a heart harvested from a neonatal rat with Collagenase type 2 (Worthington Biochemical Corporation, LS004176) were cultured in a 96-well plate. For splenic monocytes, a spleen was harvested from a wild-type mouse and homogenized, and then the monocyte fraction was collected by specific gravity separation using Optiprep (Serumwerk Bernburg, 1893). For the adhesion experiment, the cardiac fibroblasts were cultured in the 96-well plate for 48 hours, and then medium was replaced with TNFα+/− and cultured for another 24 hours. The splenic monocytes subjected to fluorescent staining (Hoechst 33342 (DOJINDO LABORATORIES, 341-07901) or Cytored (DOJINDO LABORATORIES, 342-08531)) were added and incubated at 37° C. for 30 min. After washing 6 times with PBS (−) to remove non-adherent monocytes, and then adherent monocytes were counted on In Cell Analyzer 6000 (GE Healthcare Life Sciences).
# (§2) The TNFα (Peprotech, 300-01A) was added to the wells at a final concentration of 5 to 15 ng/ml.
# Induction of the Vcam-1 by the TNFα was determined by Western blotting. Anti-Vcam1 antibody EPR5047 (Abcam, ab134047) was used as a primary antibody for the Western blotting. An HRP-conjugated anti-Rabbit antibody was used for detection, and Chemi-Lumi One L (Nacalai tesque, 07880-70) was used as a luminescence reagent. […]
# [3] = tested on: cardiac fibroblasts and splenic monocytes; assay: Adhesion experiment of monocytes with cardiac fibroblasts in vitro (TNFα stimulation); format: cell-based, neonatal rat (fibroblasts), mouse (monocytes); conditions: stimulation with TNFα for 24 hours; monocytes incubated 30 min at 37° C.; In Cell Analyzer 6000
# Protocol: as §1, §2
# [4] = 1% AJM300 mixed diet, 28 days of age, versus AJM300 (−) group, t-test p=0.0231
Compound,"heart rate (echocardiography) [1, 4]","left ventricular contractile performance: % Fractional Shortening [1, 4]","survival time (Kaplan-Meier) versus AJM300 (−) group ([1]; mixed diet containing 1% of AJM300 from 2 weeks of age until death, Log-rank test p=0.0022)",expression of the Vcam-1 (Western blotting) [2],adhesion between the cardiac fibroblasts and the monocytes [3]
"COC(=O)[C@H](Cc1ccc(-n2c(=O)c3cc(N(C)C)ccc3n(C)c2=O)cc1)NC(=O)c1c(Cl)cccc1Cl [AJM300, carotegrast methyl]",significantly ameliorated bradycardia,significantly improved left ventricular contractile performance,significantly prolonged,–,–
TNFα,–,–,–,increased more,strengthened

# From patent US20250206825A1, “COMPOSITION FOR PREVENTING OR TREATING MYOCARDITIS, COMPRISING VLA-4 INHIBITOR” (OSAKA UNIVERSITY, priority 2022, published 2025)
